The text below walks through data of patent US20040097534A1, “Composition for the protection and regeneration of nerve cells containing berberine derivatives” (EUGENBIO INC., priority 2001, published 2004).

The structures appear in SMILES notation. Entries after “also recorded” stand apart in the source; their conditions may differ.

In test [1] the test system is bcl-2 mRNA. The test is described as follows: Expression of bcl-2 mRNA in white rat cerebra (RT-PCR). In kind it is in vivo. The conditions noted are these: berberine 5 mg/kg intraperitoneally. As to the method:
All groups were intraperitoneally injected. RT-PCR was performed to examine the expression of bcl-2 mRNA, which is an anti-apoptosis gene expressed in cerebral tissues. GAPDH mRNA was used as a control group. The expression of GAPDH mRNA was also performed by RT-PCR method.
1 ml of TRI Reagent (Molecular Research Center Inc., USA) was added to 100 mg of cerebral tissue sections, and the mixture was homogenized and then left at room temperature for 10 minutes. 0.1 ml of BCP (Sigma, USA) was added to 1 ml of the homogenized mixture, mixed with each other for 1 minute, and then left at 4° C. for 10 minutes. After the mixture was centrifuged at 12,000 rpm, 4° C. for 15 minutes, the supernatant was added to cold isopropanol and left at a temperature of −20° C. for 16 hours. Thereafter, the supernatant was centrifuged at 12,000 rpm, 4 for 15 minutes to obtain RNA precipitates. The obtained RNA precipitates were washed with DEPC diethylpyrocarbonate)-treated cold ethanol (75%), and dried using SpeedVac. The dried RNA was dissolved in DEPC-treated distilled water. After the concentration and purity of RNA were spectrophotometrically measured at 260 nm, the isolated RNA was stored at a temperature of −20° C. before use. […]
10 μl of amplified PCR product was electrophoresed in a 1.5% agarose gel, and the density was measured using a gel documentation system (Bio-Rad Lab, USA).

Test [2] concerns SH-SY5Y cells. The test is described as follows: MTT assay, SH-SY5Y survival under oxidative stress (H2O2). In kind it is cell-based, human. The procedure:
SH-SY5Y cells were treated with H2O2 for 30 minutes to induce cell injuries. 3 hours before the cells were treated with H2O2, berberine (0.25˜3.5 μg) was added to cell culture to examine its cell protection effect (see, Table 4 and FIG. 4b).

In test [3] the test system is pyramidal nerve cells in the hippocampal CA1 region. The test is described as follows: Forebrain ischemia induced by 4-vessel occlusion (4-VO), viable CA1 cells. The test is classed as in vivo, Wister male white rats. As to conditions: berberine i.p. 0 and 90 minutes after ischemia induction, 1 week after; sham 308±6.6, saline 28±3.8. As to the method:
A 4-VO model was prepared by a modified method of Pulsinelli, et al (Ann. Neurol. 11, 491-498(1982)). Wister male white rats weighing about […] were anesthetized with 5% isoflurane contained in a mixture of nitrogen and oxygen (70:30), and then surgery was performed under anesthetization while maintaining the concentration of isoflurane at 1.5%.
First, the throat region was incised, and then silicone tube rings were inserted into common carotid arteries to perform reperfusion after ischemia induction. Upon inducing ischemia, in order to block blood circulation through microvessels, a thread was penetrated so that the trachea, esophagus, external jugular veins and common carotid arteries of the rat were positioned to the front, and cervical and paravertebral muscles of the rat were positioned to the back. Thereafter, the wounds were sutured with operating clips.
Next, the head of the rat was fixed on a stereotaxic apparatus to operate on the occiput, and then the tail was fixed so that it descended downwardly at an angle of 30°. […]
While body temperatures of the rats were measured at intervals of 30 minutes for 2 hours, and thereafter measured at intervals of 1 hour for 3 hours after ischemia induction, the rats were maintained at 37±0.5° C. using a temperature-controlling heater. The body temperature was measured by inserting a probe into the rectum to a depth of 6 cm. […]

Test [4] has as its system sciatic nerves. As to the kind of experiment: Regeneration of crushed sciatic nerves (axons, myelin sheaths). The conditions noted are these: 3 weeks, berberine intraperitoneal. The test is classed as in vivo, Sprague-Dawley white rat.
The mark [5] stands for this setting: N2, H2O2 + berberine 0.25 μg/ml.

Regarding `COc1ccc2cc3[n+](cc2c1OC)CCc1cc2c(cc1-3)OCO2` [Berberine, 7,8,13,13a-tetradihydro-9,10-dimethoxy-2,3-(methylenedioxy) berbinium], the “expression of bcl-2 mRNA in cerebral tissues” value is “High bcl-2 mRNA Expression” in test [1] and “higher than in the control group; also recorded: increased” in test [1] (listed as berberine). Further, the “Average (O.D. relative to H2O2 alone)” value in test [2] (setting [5]) was determined as 208%; in test [2] (N2, H2O2 + berberine 1.5 μg/ml), 287%; in test [2] (N2, H2O2 + berberine 3 μg/ml), 344%; in test [2] (N2, H2O2 + berberine 3.5 μg/ml) it was 228%. The O.D. was 0.116 in test [2] (setting [5]); 0.16 in test [2] (N2, H2O2 + berberine 1.5 μg/ml); 0.192 in test [2] (N2, H2O2 + berberine 3 μg/ml); 0.127 in test [2] (N2, H2O2 + berberine 3.5 μg/ml). In test [3], the “density of viable cells in hippocampal CA1” value amounted to 257±9.6 cell/mm^2. For the same molecule, the “number of axons longer than 300 μm” value in test [4] (PBS = 21.3) was 51.6. For the same molecule, the “number of myelin sheaths longer than 200 μm” value in test [4] (PBS = 40) came out at 112.
